Assay results reported in patent publication US9714266B2, “Estra-1,3,5(10),16-tetraene-3-carboxamides for inhibition of 17β-hydroxysteroid dehydrogenase (AKR1C3)” (priority 2013, dated 2017).
Several values for one entry are separate records, joined by “and”; a condition that tells them apart may be missing. Equal entries are not always repeated.

Assays:
Human CYP17A1 = Human CYP17A1 (Homo sapiens (Human), UniProt P05093); experiment: Inhibition of Cyp17A1 (recombinant enzyme, 3H-progesterone conversion, HPLC); type: biochemical; conditions: for IC50: human CYP17, mean of 3 or 4 independent IC50 values, read-out: IC50 ± SD CYP17
Description: The inhibition of CYP17A1 by the test compounds was evaluated by means of recombinant enzyme. Human CYP17A1 was expressed in E. coli (Ehmer, P. B. et al.; J. Steroid Biochem. Mol. […] After evaporating the organic phase, the steroids were taken up in acetonitrile. 16α-Hydroxyprogesterone, 17α-hydroxyprogesterone and progesterone were separated with acetonitrile/water (45:55) as mobile phase on a C18 reverse phase chromatography column (Nucleodur C18 Gravity, 3 μm, Macherey-Nagel, Düren) in an HPLC System (Agilent 1100 Series, Agilent Technologies, Waldbronn). Detection and quantification of the steroids were conducted by means of a Radioflow detector (Berthold Technologies, Bad Wildbad). The inhibition was calculated by the following formula: [formula] Each value was calculated from at least three independent experiments.

AKR1C3 [1] = target: T1, AKR1C3 (Homo sapiens (Human), UniProt P42330); experiment: AKR1C3 inhibition in a cell-based system (transfected HEK293 cells, coumberol fluorescence); conditions: HEK293 cells transfected with AKR1C3 expression plasmid; read-out: Cellular AKR1C3 inhibition IC50
Description: The inhibition of AKR1C3 by the substances described in this invention was measured in a cell-based assay using […] as the substrate for the AKR1C3 (Halim, M., Yee, D. J., and Sames, D., J. AM. CHEM. SOC. 130, 14123-14128 (2008) and Yee, D. J., Balsanek, V., Bauman, D. R., Penning, T. M., and Sames, D., Proc. Natl. Acad. Sci. USA 103, 13304-13309 (2006)) (cf. Example 48).
The cell system used was HEK293 cells (ATCC, USA) (cell culture medium: DMEM, 1.5 g of glucose, 10% FCS, PSG). The cells were transfected with an AKR1C3 expression plasmid (pCMV6-AC-AKR1C3, GenBank Accession No. NM_003739.4) overnight (X-tremeGENE HP, Roche). The next morning, the cells were sown into black 96-well culture plates with a cell density of 40 000 cells/well (Greiner Bio-One, Frickenhausen, Germany). 7 h later, the cells were incubated with the test substances (dissolved in 100× concentration in DMSO, final concentration between 10^−11M and 10^−5M) and […] (dissolved in cell culture medium, final concentration 5×10^−6M) overnight. The following morning, the fluorescence of coumberol was measured at 535 nm (excitation at 355 nm) with a suitable measuring instrument (Mithras, from Berthold). […] The data were normalized (transfected cells without inhibitor, only DMSO=0% inhibition; transfected cells, 10 μM EM-1404 inhibitor [F. Labrie et al. U.S. Pat. No. 6,541,463, 2003]=100% inhibition) and IC50 values were calculated by a 4-parameter fit.

AKR1C3 [2] = target: T1, AKR1C3; experiment: AKR1C3 enzyme assay (coumberone reduction, fluorescence); type: biochemical; conditions: recombinant human AKR1C3, coumberone 0.3 μM, NADPH 10 μM; read-out: AKR1C3 enzyme inhibition IC50
Description: The AKR1C3-inhibitory action of the substances of this invention was measured in the AKR1C3 assay described in the paragraphs which follow. Essentially, the enzyme activity is measured by quantifying the coumberol formed from coumberone ([…]., and […]. AM. CHEM. SOC. 130, 14123-14128 (2008) […]., Bauman, D. R., Penning, T. M., and […]., Proc. Natl. Acad. Sci. USA 103, 13304-13309 (2006)). In this assay, the increase in the highly fluorescent coumberol can be determined by NADPH (nicotinamide adenine dinucleotide phosphate)-dependent reduction of the nonfluorescent coumberone by AKR1C3. […] NM_003739). This was expressed as the GST (glutathione S-transferase) fusion protein in E. coli and purified by means of glutathione-Sepharose affinity chromatography. The GST was removed by thrombin digestion with subsequent size exclusion chromatography (Dufort, I., Rheault, P., Huang, X F., Soucy, P., and Luu-The, V., Endocrinology 140, 568-574 (1999)). […] The concentration of the AKR1C3 was matched to the respective activity of the enzyme preparation and set such that the assay worked within the linear range. Typical concentrations were in the region of 1 nM. The reaction was stopped by adding 5 μl of a stop solution consisting of the inhibitor EM-1404 [F. Labrie et al. U.S. Pat. […] Subsequently, the fluorescence of coumberol was measured at 520 nm (excitation at 380 nm) with a suitable measuring instrument (Pherastar from BMG Labtechnologies).

recombinant human AKR1C4 = recombinant human AKR1C4 (Homo sapiens (Human), UniProt P17516); experiment: AKR1C4 inhibition (NADPH consumption, phenanthrenequinone); type: biochemical
Description: (§1) The AKR1C1/AKR1C2/AKR1C4-inhibitory action of the inventive substances, for determination of the selectivity of this invention, was measured in the assay described in the paragraphs which follow. Essentially, the enzyme activity is measured by the quantification of NADPH (nicotinamide adenine dinucleotide phosphate) consumption in the conversion of phenanthrenequinone (PQ) by the AKR1C enzymes. […] NM_001353.5, NM_001354, NM_001818). This was expressed as the GST (glutathione S-transferase) fusion protein in E. coli and purified by means of glutathione-Sepharose affinity chromatography. The GST was removed by thrombin digestion with subsequent size exclusion chromatography (Dufort, I., Rheault, P., Huang, X F., Soucy, P., and Luu-The, V., Endocrinology 140, 568-574 (1999)). […] The mixture was incubated at 37° C. for 3 h, and the fluorescence was determined at the end of the reaction. […] Typically, the test substances were tested on the same microtitre plate in […] in the range from 10 μM to 1 pM (10 μM, 1 μM, 100 nM, 10 nM, 1 nM, 100 pM, 10 pM, 1 pM). As described, the pharmacological substances claimed were tested for their inhibitory effect on AKR1C enzymes 1, 2 and 4 (see Table 4).

recombinant human AKR1C2 = recombinant human AKR1C2 (Homo sapiens (Human), UniProt P52895); experiment: AKR1C2 inhibition (NADPH consumption, phenanthrenequinone); type: biochemical
Description: as §1

recombinant human AKR1C1 = recombinant human AKR1C1 (Homo sapiens (Human), UniProt Q04828); experiment: AKR1C1 inhibition (NADPH consumption, phenanthrenequinone); type: biochemical
Description: as §1

Sequence of recombinant human AKR1C1 (Q04828 whole entry): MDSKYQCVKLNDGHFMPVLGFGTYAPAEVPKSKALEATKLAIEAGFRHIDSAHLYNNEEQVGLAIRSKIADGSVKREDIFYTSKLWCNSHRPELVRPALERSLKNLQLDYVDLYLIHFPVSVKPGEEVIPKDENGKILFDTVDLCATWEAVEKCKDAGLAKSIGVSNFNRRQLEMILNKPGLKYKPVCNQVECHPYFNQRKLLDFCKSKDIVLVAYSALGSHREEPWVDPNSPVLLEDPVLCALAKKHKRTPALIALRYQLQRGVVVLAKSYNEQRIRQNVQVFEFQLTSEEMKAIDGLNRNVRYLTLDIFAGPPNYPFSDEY
Sequence of Human CYP17A1 (P05093 whole entry): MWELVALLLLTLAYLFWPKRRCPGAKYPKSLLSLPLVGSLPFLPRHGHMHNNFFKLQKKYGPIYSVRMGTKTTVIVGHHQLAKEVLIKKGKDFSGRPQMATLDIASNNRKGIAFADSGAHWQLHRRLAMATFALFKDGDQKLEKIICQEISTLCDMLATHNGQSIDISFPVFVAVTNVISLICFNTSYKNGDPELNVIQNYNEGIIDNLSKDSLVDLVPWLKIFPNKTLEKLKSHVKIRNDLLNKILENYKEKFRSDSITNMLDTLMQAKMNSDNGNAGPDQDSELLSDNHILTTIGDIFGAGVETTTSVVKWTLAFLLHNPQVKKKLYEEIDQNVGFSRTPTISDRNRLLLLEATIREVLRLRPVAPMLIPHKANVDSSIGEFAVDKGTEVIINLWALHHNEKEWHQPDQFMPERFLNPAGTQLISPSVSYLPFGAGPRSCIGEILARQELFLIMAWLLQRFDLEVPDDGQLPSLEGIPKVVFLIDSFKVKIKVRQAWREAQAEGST
Sequence of recombinant human AKR1C4 (P17516 whole entry, the tested form may be a part): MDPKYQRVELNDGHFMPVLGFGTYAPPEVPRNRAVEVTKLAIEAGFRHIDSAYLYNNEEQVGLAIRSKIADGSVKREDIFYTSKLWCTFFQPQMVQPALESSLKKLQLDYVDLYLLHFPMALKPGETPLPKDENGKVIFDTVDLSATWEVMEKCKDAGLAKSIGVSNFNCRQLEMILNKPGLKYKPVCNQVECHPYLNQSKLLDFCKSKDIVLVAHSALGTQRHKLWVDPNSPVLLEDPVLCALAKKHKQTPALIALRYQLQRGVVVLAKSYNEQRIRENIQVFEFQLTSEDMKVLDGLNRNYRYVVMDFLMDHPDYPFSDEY
Sequence of recombinant human AKR1C2 (P52895 whole entry): as the sequence (Q04828 whole entry) above, with T38V, R47H, L54V, C87S, V151M, R170H, Q172L counted along it
T1 sequence (P42330 whole entry): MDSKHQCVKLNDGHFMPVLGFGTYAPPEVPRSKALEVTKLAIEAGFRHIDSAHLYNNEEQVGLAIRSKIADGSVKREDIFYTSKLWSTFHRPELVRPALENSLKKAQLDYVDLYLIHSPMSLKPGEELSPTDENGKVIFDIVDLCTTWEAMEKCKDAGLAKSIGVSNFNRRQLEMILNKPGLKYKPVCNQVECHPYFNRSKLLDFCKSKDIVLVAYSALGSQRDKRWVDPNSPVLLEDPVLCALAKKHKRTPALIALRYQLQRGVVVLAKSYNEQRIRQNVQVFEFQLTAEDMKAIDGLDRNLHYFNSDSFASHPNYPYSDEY

Row | Compound | IC50 (Human CYP17A1) [nM] | IC50 (AKR1C3 [1]) | IC50 (AKR1C3 [2]) | Inhibition of AKR1C4 (in words) (recombinant human AKR1C4) | Inhibition of AKR1C2 (in words) (recombinant human AKR1C2) | Inhibition of AKR1C1 (in words) (recombinant human AKR1C1) | other results
1 | C[C@]12CC[C@@H]3c4ccc(C(=O)NCC(O)C(F)(F)F)cc4CC[C@H]3[C@@H]1CC=C2c1cncc(F)c1 (mixture of isomers) [Example 20, 17-(5-fluoropyridin-3-yl)-N—[(RS)-3,3,3-trifluoro-2-hydroxypropyl]oestra-1,3,5(10),16-tetraene-3-carboxamide] | > 20000 | 32 nM and 42 nM | 12 nM and 8 nM and 20 nM and 16 nM |  |  |  | 
2 | C[C@]12CC[C@H](O)CC1=CC[C@@H]1[C@@H]2CC[C@]2(C)C(c3cccnc3)=CC[C@@H]12 [Abiraterone, reference compound] |  |  |  |  |  |  | Inhibition of Cyp17A1 (in words) (Human CYP17A1; up to a substance concentration of 20 μM where stated): active
3 | C[C@]12CC[C@@H]3c4ccc(C(N)=O)cc4CC[C@H]3[C@@H]1CC=C2c1cccnc1 [Example 1, 17-(pyridin-3-yl)oestra-1,3,5(10),16-tetraene-3-carboxamide] |  | 27 nM and 28 nM and 66 nM and 13 nM | 5 nM and 6 nM | no inhibition | no inhibition | no inhibition | AKR1C4 enzyme inhibition IC50 (recombinant human AKR1C4; tested up to 10 μM): no effect; AKR1C2 enzyme inhibition IC50 (recombinant human AKR1C2; tested up to 10 μM): no effect; AKR1C1 enzyme inhibition IC50 (recombinant human AKR1C1; tested up to 10 μM): no effect
4 | C[C@]12CC[C@@H]3c4ccc(C(N)=O)cc4CC[C@H]3[C@@H]1CC=C2c1cncc(F)c1 [Example 4, 17-(5-fluoropyridin-3-yl)oestra-1,3,5(10),16-tetraene-3-carboxamide] | > 20000 |  | 4 nM |  |  |  | 
5 | O=C1OC(c2ccc(O)cc2)(c2ccc(O)cc2)c2ccccc21 [phenolphthalein] |  |  |  | shows inhibition | shows inhibition | shows inhibition | IC50 (recombinant human AKR1C4; tested up to 10 μM, read-out: AKR1C4 enzyme inhibition IC50): 21 nM and 17 nM; IC50 (recombinant human AKR1C2; tested up to 10 μM, read-out: AKR1C2 enzyme inhibition IC50): 554 nM and 438 nM; IC50 (recombinant human AKR1C1; tested up to 10 μM, read-out: AKR1C1 enzyme inhibition IC50): 46 nM and 60 nM
